Some test systems named below: 786-0 renal; A549 NSCLC; CCRF-CEM leukemia; DMS 114 small cell lung; K-562 leukemia; MALME-3M melanoma; MOLT-4 leukemia; NCI-H226 lung; OVCAR-4 ovarian; OVCAR-8 ovarian; RPMI-8226 leukemia; RXF 393 renal; SF-295 CNS; UO-31 renal; CAKI-1 renal; A498 renal; BT-549 breast; HS 578T breast; MDA-N; NCI/ADR-RES ovarian.
What all share (experiment): NCI-60 cell line screen, 48 h

The text below walks through data of PubChem BioAssay (NCI).

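Where inhibition never reached the appropriate level, the endpoint shown equals the highest concentration tested. Otherwise, values were interpolated linearly from a five-concentration, 48-hour dose response in 96-well plates. TGI is the concentration that stops growth completely.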

Take `OCc1ccc(C2CC(c3ccco3)=NN2c2ccccc2)o1` (centres undefined): the TGI in the assay on 786-0 renal, in the assay on A549 NSCLC, in the assay with CCRF-CEM leukemia, in the assay on DMS 114 small cell lung, with K-562 leukemia and in the assay on MALME-3M melanoma was more than 100 µM throughout. The TGI in the assay on MOLT-4 leukemia, in the assay on NCI-H226 lung, in the assay on OVCAR-4 ovarian, with OVCAR-8 ovarian, in the assay on RPMI-8226 leukemia and in the assay with RXF 393 renal was more than 100 µM in each case. Besides, the TGI with SF-295 CNS and in the assay with UO-31 renal was more than 100 µM each time.
On to `O=C(CN(c1ccccc1)c1ccccc1)n1nnc2ccccc21`, for which the TGI with 786-0 renal is more than 100 µM; with A549 NSCLC, more than 100 µM; with CAKI-1 renal it was more than 100 µM; in the assay on CCRF-CEM leukemia, more than 100 µM; in the assay with DMS 114 small cell lung it was 85.7 µM; in the assay on K-562 leukemia it was more than 100 µM. Further, the TGI in the assay with MALME-3M melanoma, in the assay on MOLT-4 leukemia, in the assay with NCI-H226 lung, with OVCAR-8 ovarian, in the assay with RPMI-8226 leukemia and in the assay with RXF 393 renal was more than 100 µM throughout. Besides, the TGI is more than 100 µM in the assay on SF-295 CNS and 55.2 µM in the assay with UO-31 renal.
As for `COc1cc2c3c(c1OC)C1(C=CC(=O)C=C1)C[C@H]3N(C)CC2`, the TGI with 786-0 renal, with A549 NSCLC, in the assay with DMS 114 small cell lung, in the assay on MALME-3M melanoma, with MOLT-4 leukemia and in the assay on NCI-H226 lung was more than 100 µM in each case. Besides, the TGI in the assay on OVCAR-8 ovarian, in the assay on RPMI-8226 leukemia, in the assay with RXF 393 renal, with SF-295 CNS and in the assay on UO-31 renal was more than 100 µM in each case.
For `CC(=O)O[C@]12CCCCCC1C1(O)C(O)CCCC[C@H]12` (some centres undefined), the TGI in the assay with 786-0 renal, in the assay on A549 NSCLC, in the assay with CCRF-CEM leukemia, in the assay on DMS 114 small cell lung, in the assay with K-562 leukemia and in the assay on MALME-3M melanoma was more than 100 µM throughout. In addition, the TGI with MOLT-4 leukemia, in the assay on NCI-H226 lung, in the assay on OVCAR-4 ovarian, in the assay with OVCAR-8 ovarian, in the assay with RPMI-8226 leukemia and in the assay on RXF 393 renal was more than 100 µM in each case. Also, the TGI in the assay on SF-295 CNS and in the assay with UO-31 renal was more than 100 µM each time.
`O=C1NC2OC(C(O)CO)C(O)C2O1` (centres undefined): the TGI in the assay with 786-0 renal, in the assay on A498 renal, in the assay on A549 NSCLC, with CAKI-1 renal, in the assay on CCRF-CEM leukemia and in the assay on DMS 114 small cell lung was more than 100 µM throughout. Further, the TGI with K-562 leukemia, with MALME-3M melanoma, in the assay on MOLT-4 leukemia, in the assay on OVCAR-4 ovarian, in the assay on OVCAR-8 ovarian and in the assay with SF-295 CNS was more than 100 µM throughout. This compound registered a TGI in the assay on UO-31 renal of more than 100 µM.
On to `CC(=O)[C@@]1(O)CC[C@H]2[C@@H]3C[C@H](C)C4=CC(=O)C=C[C@]4(C)[C@@]3(F)[C@@H](O)C[C@@]21C`, for which the TGI in the assay with 786-0 renal, in the assay with A498 renal, with A549 NSCLC, with BT-549 breast, with CAKI-1 renal and in the assay on CCRF-CEM leukemia was more than 100 µM in each case. Besides, the TGI in the assay with DMS 114 small cell lung, in the assay with HS 578T breast, in the assay on K-562 leukemia, in the assay with MALME-3M melanoma, in the assay with MDA-N and in the assay with MOLT-4 leukemia was more than 100 µM each time. The TGI in the assay with NCI-H226 lung, in the assay on NCI/ADR-RES ovarian, in the assay with OVCAR-4 ovarian, in the assay with OVCAR-8 ovarian, with RPMI-8226 leukemia and in the assay with RXF 393 renal was more than 100 µM each time. Moreover, the TGI with SF-295 CNS and with UO-31 renal was more than 100 µM throughout.
With `CSc1sc2ccccc2[s+]1`, the TGI in the assay on 786-0 renal, in the assay on A498 renal, in the assay with A549 NSCLC, in the assay on CAKI-1 renal, in the assay on CCRF-CEM leukemia and in the assay on DMS 114 small cell lung was more than 100 µM in each case. The TGI in the assay on K-562 leukemia, with MALME-3M melanoma, in the assay on MOLT-4 leukemia, with NCI-H226 lung, with OVCAR-4 ovarian and in the assay with OVCAR-8 ovarian was more than 100 µM throughout. Further, the TGI with RPMI-8226 leukemia, in the assay on RXF 393 renal, with SF-295 CNS and in the assay with UO-31 renal was more than 100 µM in each case.
For the compound `O=C1CSC(/C(=N/Nc2ccccc2)c2nc3ccccc3[nH]2)=N1`, the TGI in the assay with 786-0 renal was 80 µM; with A498 renal it was more than 100 µM; in the assay with A549 NSCLC, more than 100 µM; in the assay with CAKI-1 renal, 56.1 µM; in the assay with CCRF-CEM leukemia, 53.6 µM; in the assay with DMS 114 small cell lung, more than 100 µM. Moreover, the TGI with K-562 leukemia was more than 100 µM; in the assay with MALME-3M melanoma it was more than 100 µM; in the assay with NCI-H226 lung it was 59.7 µM; in the assay with OVCAR-4 ovarian it was more than 100 µM; in the assay on OVCAR-8 ovarian, more than 100 µM; in the assay on SF-295 CNS it was 58.5 µM. The compound also had a TGI in the assay with UO-31 renal of more than 100 µM.
Consider `C=CCc1ccc(Oc2cc(CC=C)c3c(c2O)O[C@@H](CO)[C@H]3c2ccc(O)c(-c3cc(CC=C)ccc3O)c2)cc1`, for which the TGI was more than 100 µM in the assay with 786-0 renal; more than 100 µM with A498 renal; more than 100 µM in the assay with A549 NSCLC; more than 100 µM in the assay with CAKI-1 renal; 46.6 µM with CCRF-CEM leukemia; 54.6 µM in the assay with DMS 114 small cell lung. Further, the TGI in the assay with K-562 leukemia, in the assay with MALME-3M melanoma, with NCI-H226 lung, in the assay with OVCAR-4 ovarian, in the assay with OVCAR-8 ovarian and with RPMI-8226 leukemia was more than 100 µM in each case. Moreover, the TGI in the assay with RXF 393 renal, in the assay with SF-295 CNS and in the assay on UO-31 renal was more than 100 µM each time.
As to `CCOC(=O)c1ccc(C)c(N=NN(C)C)c1`, the TGI in the assay with 786-0 renal, with A498 renal, in the assay with A549 NSCLC, in the assay on CAKI-1 renal, with CCRF-CEM leukemia and in the assay on DMS 114 small cell lung was more than 100 µM in each case. Also, the TGI in the assay with K-562 leukemia, with MALME-3M melanoma, in the assay with MOLT-4 leukemia, in the assay with NCI-H226 lung, in the assay on OVCAR-4 ovarian and in the assay on OVCAR-8 ovarian was more than 100 µM throughout. For the same compound, the TGI with RPMI-8226 leukemia, in the assay on RXF 393 renal, in the assay on SF-295 CNS and in the assay with UO-31 renal was more than 100 µM throughout.
Take `CC12CCC(O)CC1CCC1C2CCC2(C)C(C(=O)CC(O)C(F)(F)F)CCC12` (centres undefined): the TGI with 786-0 renal was 21.6 µM; in the assay with A498 renal it was 40.7 µM; in the assay with A549 NSCLC it was more than 100 µM; with BT-549 breast it was more than 100 µM; with CAKI-1 renal, more than 62.3 µM; in the assay with CCRF-CEM leukemia, more than 93.1 µM. For the same compound, the TGI in the assay on HS 578T breast was more than 80 µM; in the assay on K-562 leukemia, 17.4 µM; in the assay with MALME-3M melanoma it was more than 100 µM; in the assay with MDA-N it was more than 100 µM; with MOLT-4 leukemia, 43.6 µM; in the assay with NCI-H226 lung it was more than 100 µM. Moreover, the TGI in the assay with NCI/ADR-RES ovarian was more than 100 µM; with OVCAR-4 ovarian, more than 100 µM; in the assay with OVCAR-8 ovarian it was more than 100 µM; with RPMI-8226 leukemia, 26.6 µM; in the assay with RXF 393 renal, 29.3 µM; in the assay on SF-295 CNS it was 26.7 µM. The compound also returned a TGI with UO-31 renal of 11.1 µM.
In the case of `CC(=O)OCC1OC(n2c3c(cc(C#N)c2=S)CCCCC3)C(OC(C)=O)C(OC(C)=O)C1OC(C)=O` (centres undefined), the TGI in the assay on 786-0 renal, in the assay on A498 renal, in the assay with A549 NSCLC, in the assay on BT-549 breast, in the assay with CAKI-1 renal and in the assay on CCRF-CEM leukemia was more than 100 µM throughout. The TGI in the assay with HS 578T breast, in the assay with K-562 leukemia, with MALME-3M melanoma, in the assay on MDA-N, in the assay with MOLT-4 leukemia and in the assay with NCI-H226 lung was more than 100 µM each time. Moreover, the TGI with NCI/ADR-RES ovarian, with OVCAR-4 ovarian, in the assay on OVCAR-8 ovarian, in the assay with RPMI-8226 leukemia, in the assay with RXF 393 renal and with SF-295 CNS was more than 100 µM in each case. The TGI with UO-31 renal is more than 100 µM.
